Test results reported in PubChem BioAssay AID2060487 (Molecular Pharmacology Branch, DTP, NCI, 2025).
Values belong to the compound of their own block, whether it stands above or below them.

System: 997537-175-T-J1-PDC complex spheroid viability
Test: Anticancer human tumor 997537-175-T-J1-PDC patient-derived colon adenocarcinoma cell line growth inhibition [GQUAD]
Conditions: for IC50: curve of first compound; for viability, T/C: stronger effect = lower value
Summary of the method: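 Viability of tumor cells grown as complex spheroids with endothelial and stromal cells, exposed to drug combinations. Top concentration at or near clinical Cmax (else 10 microM), diluted in half-log increments.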

[1] = second compound 0.0316 µM, first compound 0.0316 µM
[2] = second compound 0.0316 µM, first compound 0.1 µM
[3] = second compound 0.0316 µM, first compound 0.316 µM
[4] = second compound 0.0316 µM, first compound 1 µM
[5] = second compound 0.0316 µM, first compound 3.16 µM
[6] = second compound 0.0316 µM, first compound 10 µM
[7] = second compound 0.1 µM, first compound 0.0316 µM
[8] = second compound 0.1 µM, first compound 0.1 µM
[9] = second compound 0.1 µM, first compound 0.316 µM
[10] = second compound 0.1 µM, first compound 1 µM
[11] = second compound 0.1 µM, first compound 3.16 µM
[12] = second compound 0.1 µM, first compound 10 µM
[13] = second compound 0.316 µM, first compound 0.0316 µM
[14] = second compound 0.316 µM, first compound 0.1 µM
[15] = second compound 0.316 µM, first compound 0.316 µM
[16] = second compound 0.316 µM, first compound 1 µM
[17] = second compound 0.316 µM, first compound 3.16 µM
[18] = second compound 0.316 µM, first compound 10 µM
[19] = second compound 1 µM, first compound 0.0316 µM
[20] = second compound 1 µM, first compound 0.1 µM
[21] = second compound 1 µM, first compound 0.316 µM
[22] = second compound 1 µM, first compound 1 µM
[23] = second compound 1 µM, first compound 3.16 µM
[24] = second compound 1 µM, first compound 10 µM
[25] = second compound 3.16 µM, first compound 0.0316 µM
[26] = second compound 3.16 µM, first compound 0.1 µM
[27] = second compound 3.16 µM, first compound 0.316 µM
[28] = second compound 3.16 µM, first compound 1 µM
[29] = second compound 3.16 µM, first compound 3.16 µM
[30] = second compound 3.16 µM, first compound 10 µM
[31] = second compound 10 µM, first compound 0.0316 µM
[32] = second compound 10 µM, first compound 0.1 µM
[33] = second compound 10 µM, first compound 0.316 µM
[34] = second compound 10 µM, first compound 1 µM
[35] = second compound 10 µM, first compound 3.16 µM
[36] = second compound 10 µM, first compound 10 µM
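Note: spheroids exposed to the agents for 7 days.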
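Throughout, for viability, T/C: 100% = DMSO vehicle control viability.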

- IC50 (second compound 0.0316 µM): 0.147 µM
- IC50 (second compound 0.1 µM): 0.157 µM
- IC50 (second compound 0.316 µM): < 0.0316 µM
- IC50 (second compound 1 µM): > 10 µM
- IC50 (second compound 3.16 µM): > 10 µM
- IC50 (second compound 10 µM): < 0.0316 µM
Structure (SMILES): CC1COCCN1c1cc(-c2ccnn2C)c2ccnc(-c3ccn[nH]3)c2n1 (centres undefined) + Cc1cnc(CNC(=O)c2c(=O)c3ccc(N4CCCN(C)CC4)nc3n3c2sc2ccccc23)cn1
- viability, T/C [1]: 80.7%
- viability, T/C [2]: 54%
- viability, T/C [3]: 37.4%
- viability, T/C [4]: 33.7%
- viability, T/C [5]: 43.5%
- viability, T/C [6]: 53.1%
- viability, T/C [7]: 65.9%
- viability, T/C [8]: 53.8%
- viability, T/C [9]: 48.4%
- viability, T/C [10]: 29.8%
- viability, T/C [11]: 51.7%
- viability, T/C [12]: 55.2%
- viability, T/C [13]: 52.7%
- viability, T/C [14]: 39%
- viability, T/C [15]: 34.8%
- viability, T/C [16]: 37.6%
- viability, T/C [17]: 48.5%
- viability, T/C [18]: 45%
- viability, T/C [19]: 55.3%
- viability, T/C [20]: 58.5%
- viability, T/C [21]: 67.5%
- viability, T/C [22]: 57.5%
- viability, T/C [23]: 58.2%
- viability, T/C [24]: 51%
- viability, T/C [25]: 63.1%
- viability, T/C [26]: 63.7%
- viability, T/C [27]: 48.5%
- viability, T/C [28]: 67.5%
- viability, T/C [29]: 57.8%
- viability, T/C [30]: 48%
- viability, T/C [31]: 43.1%
- viability, T/C [32]: 52%
- viability, T/C [33]: 66.7%
- viability, T/C [34]: 54.9%
- viability, T/C [35]: 39.8%
- viability, T/C [36]: 63.3%

Structure (SMILES): CC(C)n1c(=O)n(C)c2cnc3cc(F)c(-c4ccc(OCCCN5CCCCC5)nc4)cc3c21 + CN(C)c1ccc(Nc2c3ccc(NC(=O)CCN4CCCC4)cc3nc3cc(NC(=O)CCN4CCCC4)ccc23)cc1
- IC50 (second compound 0.0316 µM): > 10 µM
- IC50 (second compound 0.1 µM): > 10 µM
- IC50 (second compound 0.316 µM): > 10 µM
- IC50 (second compound 1 µM): > 10 µM
- IC50 (second compound 3.16 µM): > 10 µM
- IC50 (second compound 10 µM): > 10 µM
- viability, T/C [1]: 104%
- viability, T/C [2]: 91.2%
- viability, T/C [3]: 101%
- viability, T/C [4]: 87%
- viability, T/C [5]: 83%
- viability, T/C [6]: 108%
- viability, T/C [7]: 93.8%
- viability, T/C [8]: 86%
- viability, T/C [9]: 104%
- viability, T/C [10]: 64%
- viability, T/C [11]: 96.2%
- viability, T/C [12]: 98.7%
- viability, T/C [13]: 98.4%
- viability, T/C [14]: 81.9%
- viability, T/C [15]: 95.9%
- viability, T/C [16]: 82.7%
- viability, T/C [17]: 93.7%
- viability, T/C [18]: 95.2%
- viability, T/C [19]: 76%
- viability, T/C [20]: 89.8%
- viability, T/C [21]: 88.9%
- viability, T/C [22]: 93.8%
- viability, T/C [23]: 92%
- viability, T/C [24]: 95%
- viability, T/C [25]: 74.3%
- viability, T/C [26]: 85.4%
- viability, T/C [27]: 91.7%
- viability, T/C [28]: 104%
- viability, T/C [29]: 106%
- viability, T/C [30]: 93.3%
- viability, T/C [31]: 86.6%
- viability, T/C [32]: 71.7%
- viability, T/C [33]: 103%
- viability, T/C [34]: 96.7%
- viability, T/C [35]: 103%
- viability, T/C [36]: 98.4%
